Results from US8597904B2, “Pharmaceutical compositions for the treatment of conditions responsive to proteasome inhibition” (priority 2007, dated 2013).

Legend:
[1] = tested on: LAN-1 cells; test: sulphorhodamine B (SRB) cell viability / proliferation assay; format: cell-based, human
Description: (§1) The mammalian cell lines used to test the effects of syringolin A were human neuroblastoma (NB) cells with either wild type p53 (line SK-N-SH, provided by the American Type Culture Collection [ATCC], Manassas, Va.; Davidoff, et al. 1992. Oncogene 7:127-133; McKenzie, et al. 1999. Clin. Cancer Res. 5:4199-4207; Tweddle, et al. 2001. Am. J. Pathol. 158:2067-2077), mutant p53 (line LAN-1, cysteine to stop codon at residue 182, provided by Dr. Robert Seeger, University of California, Los Angeles, Calif.; Davidoff, et al. 1992. Oncogene 7:127-133; Tweddle, et al. 2001. Cancer Res. 61:8-13; Tweddle, et al. 2003. Cancer Lett. 197:93-98), or human ovarian cancer cells (line SKOV3, provided by Dr. Bonnie Warn-Cramer, Cancer Research Center of Hawaii). NB cells were maintained in RPMI 1640 (Biosource, Rockville, Md.) containing 10% (v/v) heat-inactivated fetal bovine serum (FBS) (Invitrogen, Carlsbad, Calif.), penicillin (100 IU/ml), and streptomycin (100 μg/ml) as previously described (Wallick, et al. 2005. Oncogene 24:5606-5618). SKOV3 cells were maintained in McCoy's 5A with L-glutamine (Mediatech Inc., Herndon, Va.) and containing 10% (v/v) heat-inactivated fetal bovine serum […] (Invitrogen, Carlsbad, Calif.) and gentamicin ([…]). Cells were seeded 18-24 hours before GlbA or SylA treatment and analyzed after 24 and/or 48 hours. Cell numbers were determined using a haemacytometer in the presence of trypan blue (Fisher Scientific, Pittsburgh, Pa.).
(§2) To then test the effects of syringolin A on proliferation, cells at 0.25-0.5×10^5 cells per ml were seeded in 96-well microtiter plates containing 100 μl of culture medium per well. After 24 hours, syringolin A was added to wells to a final concentration of 0.5 μm to 100 μm. Syringolin was not added to parallel samples of control cells. Cells were incubated for 48 hours, photographed, and the viability of cells (calculated as a percentage of control cell counts) was determined using the sulphorhodamine B (SRB) assay as previously reported (Skehan, et al. 1990. J. Natl. Cancer Inst. 82:1107-1112, which is incorporated herein by reference in its entirety). In brief, cell culture medium was removed from the microtiter plate and adherent cells were fixed with 10% (w/v) trichloracetic acid (TCA) for 30 minutes at room temperature. Following four washes with tap water, 100 μl of SRB (Sigma Chemical Co., St. Louis, Mo.) (0.4 g/100 ml 1% [v/v] glacial acetic acid in water) was added and the plate was then incubated for 30 minutes at room temperature, and rinsed four times with 3% (v/v) glacial acetic acid. After addition of 200 μl of 10 mM […] (not pH adjusted) to each well, the plate was incubated on an orbital shaker for 30 minutes until the SRB was uniformly dissolved. The absorption at a wavelength of 560 nm was read using an HTS 7000 Plus Bioassay Reader or a Victor 3, 1420 Multilabel Counter (PerkinElmer, Inc. Boston, Mass.). To record cell morphology with and without syringolin treatment, photomicrographs were taken of cells in 12-well plates or 96-well plates, in the presence or absence of 25 μM syringolin A, using a Nikon Diaphot inverted microscope (Nikon Corp., Tokyo, Japan) and a Carl Zeiss Axiovert 200M inverted microscope (Carl Zeiss, Goettingen, Germany), both equipped with a digital camera and computer software for image processing. Power of magnification for SK-N-SH, LAN-1, and SKOV3 cells was 20×, and for Rat-1 cells was 10×.

[2] = tested on: SK-N-SH cells; test: as above; format: cell-based, human; details: 48 hours
Description: as §1, §2

[3] = molecular target: T1, bovine pancreas trypsin (Bos taurus, UniProt P00760); test: SensoLyte Green Protease Fluorometric Assay, trypsin inhibition; format: biochemical; details: syringolin A up to 500 μM
T1 construct: bovine pancreas trypsin (Pierce); purchased Pierce; host or cells: bovine pancreas
Experimental: (§3) To test the specificity of syringolin A inhibition of proteasome activities, bovine pancreas trypsin (Pierce) and Papaya latex papain (Sigma-Aldrich) inhibition assays with syringolin A were performed with the SensoLyte™ Green Protease Fluorometric Assay Kit (AnaSpec., San Jose, Calif., USA) according to the instructions of the manufacturer. Reaction volumes of 100 μl contained an enzyme concentration of 200 ng/ml and various amounts of test inhibitors. Protease activity was monitored at 33° C. in a FluoroCount Microplate Fluorometer (FluoroCount, Packard, Canberra, Australia) using 485 nm excitation and a 550 nm emission filters.

[4] = molecular target: T2, Papaya latex papain (Carica papaya, UniProt P00784); test: SensoLyte Green Protease Fluorometric Assay, papain inhibition; format: biochemical; details: syringolin A up to 500 μM
T2 construct: Papaya latex papain (Sigma-Aldrich); purchased Sigma-Aldrich; host or cells: papaya latex
Experimental: as §3

[5] = tested on: β-actin, procaspase-3 and protein kinase Akt/PKB; test: Western blot of β-actin, procaspase-3 and Akt/PKB in syringolin A-treated cells; format: cell-based, human; details: 20 μM, 48 hours
[6] = tested on: SK-N-SH cells; details: values from previous studies with SylA (Coleman et al. 2006); cited from earlier work
[7] = tested on: NB and ovarian cancer cells; details: Coleman et al. 2006, cited from earlier work
[8] = tested on: Akt/PKB; test: Western blot of Akt/PKB and phosphorylation at Ser473 in SK-N-SH cells; format: cell-based, human
Experimental: Since Akt/PKB is a well-characterized anti-apoptotic protein, total Akt/PKB levels were measured in treated cells in addition to determining the protein's phosphorylation status at residue Ser473, which is indicative of its activity. SK-N-SH cells were treated with GlbA in the presence or absence of 3-MA, and cell lysates were analyzed for Akt/PKB.

[9] = tested on: SK-N-SH cells; test: microscopy of treated SK-N-SH cells for membrane blebbing; format: cell-based, human

T2 sequence (P00784 134-345): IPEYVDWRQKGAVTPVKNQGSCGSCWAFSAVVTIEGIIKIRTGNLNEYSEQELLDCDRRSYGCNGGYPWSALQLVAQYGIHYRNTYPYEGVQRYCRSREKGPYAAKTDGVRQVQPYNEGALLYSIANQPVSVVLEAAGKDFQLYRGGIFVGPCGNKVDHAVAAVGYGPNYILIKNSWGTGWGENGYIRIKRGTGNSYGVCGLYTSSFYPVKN
T1 sequence (P00760 24-246): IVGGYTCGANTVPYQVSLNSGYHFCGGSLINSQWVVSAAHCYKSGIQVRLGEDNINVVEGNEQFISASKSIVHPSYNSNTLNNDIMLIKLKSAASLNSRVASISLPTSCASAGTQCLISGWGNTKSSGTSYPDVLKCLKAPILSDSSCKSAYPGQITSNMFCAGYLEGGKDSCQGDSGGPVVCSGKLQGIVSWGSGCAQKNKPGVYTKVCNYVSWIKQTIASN

Row | Compound | IC50 ([1]; Homo sapiens, LAN1, LAN-1, 48 hours, SRB assay, read-out: IC50 (inhibitor concentration at which cell proliferation rate is reduced by 50% relative to control)) [µM] | cell morphology ([1]; LAN-1, 25 μM, 48 hours) | cell viability ([1]; LAN-1, 0.5 to 100 μm, 48 hours, dose-dependent) | cell morphology ([2]; 25 μM) | cell viability ([2]; 0.5 to 100 μm, dose-dependent) | IC50 ([2]; Homo sapiens, SRB assay, read-out: IC50 (inhibitor concentration at which cell proliferation rate is reduced by 50% relative to control)) [µM] | trypsin activity [3] | papain activity [4] | levels of β-actin, procaspase-3 and protein kinase Akt/PKB [5] | EC50 [6] [µM] | IC50 ([7]; read-out: IC-50 (concentration at which the cell proliferation rate is reduced to 50%)) [µM] | cell morphology ([7]; NB cells, 25 μM, 48 hours) | Akt/PKB phosphorylation at Ser473 ([8]; GlbA treatment) | total Akt/PKB levels ([8]; GlbA treatment) | Akt/PKB phosphorylation at Ser473 after pre-treatment with 3-MA ([8]; GlbA with 3-MA pre-treatment) | membrane blebbing / apoptotic effects by microscopy [9]
1 | CC(C)[C@H](NC(=O)N[C@H](C(=O)N[C@H]1/C=C/CCNC(=O)/C=C/[C@H](C(C)C)NC1=O)C(C)C)C(=O)O [syringolin A] | 20 to 25 | induced significant morphological changes | reduced the cell viability | induced significant morphological changes | reduced the cell viability | 20 to 25 | not affected | not affected | decreased | ~20 | ~25 | severe morphological changes | – | – | – | –
2 | CCCCCCC/C=C/C=C/C(=O)N[C@H](C(=O)N[C@H]1C[C@@H](O)CCNC(=O)/C=C/[C@H](C)NC1=O)[C@@H](C)O [glidobactin A] | – | – | – | – | – | – | – | – | – | – | – | – | phosphorylated at Ser473 | slight decrease | prevented | presence of membrane blebbing
